According to US12258358B1, “Ferrocene-substituted organometallic complexes” (THE REGENTS OF THE UNIVERSITY OF CALIFORNIA, priority 2023, dated 2025):

Assay: Cyclic voltammetry (CV) in MeCN electrolyte solution
Type: physicochemical
Settings: for range over which the redox couples are observed (estimation of the Vcell): symmetric battery configuration assumed
Description: Cyclic voltammetry (CV) measurements were used to determine the E1/2 values for 2-OTf and 3-OTf, and those measurements were performed in 0.1 Bu4NBF4 MeCN solution. Five redox couples, corresponding to 8 electron transfer (ET) events were observed over the potential range for 2-OTf and 3-OTf, respectively (FIGS. 3A and 3B). The electrochemistry of 2 is expected to be the same as 2-OTF, although 2-OTf has different solubility. The range of about 1.8 V over which the redox couples are observed provides an estimation of the Vcell for a battery which could be constructed using 2^+ as the analyte, if the battery is constructed with a symmetric configuration where 2 is the analyte for both the cathode and anode.
Cyclic voltammograms (CVs) were recorded in a nitrogen-filled glovebox with a CH Instruments Electrochemical Analyzer Model 620D or 1400 with a glassy carbon working electrode (CH Instruments, nominal surface area of 0.071 cm^2), a platinum wire auxiliary electrode, and an Ag/AgNO3 (0.001M) non-aqueous reference electrode with a Vycor tip. All potentials are referenced to the SCE couple, and ferrocene was used as an external standard where the E1/2 of ferrocene/ferrocenium is +0.40 V vs. SCE in 0.1 M Bu4NPF6 MeCN. Bu4NPF6 was recrystallized from ethanol and placed under vacuum for 72 hours before electrolyte solutions were made. Electrolyte solutions were stored over 3 Å molecular sieves for at least 48 hours before use. Sieves were activated by heating under vacuum at 270° C. for at least 72 hours. UV-Vis spectra were obtained using a 1 cm cuvette using an Agilent 8453 UV-vis spectrophotometer.

[1] = 0.1 Bu4NBF4 MeCN solution, glassy carbon working electrode

Substance: [(FcI2P^−)2Al)]OTf [Complex 2-OTf]
- electron transfer (ET) events observed over the potential range (five redox couples) (0.1 Bu4NBF4 MeCN solution): 8
- range over which the redox couples are observed (estimation of the Vcell): about 1.8 V

Substance: [(^EtOFcI2P^−)2Al)](OTf) [Complex 3-OTf]
- electron transfer (ET) events observed over the potential range (five redox couples) (0.1 Bu4NBF4 MeCN solution): 8
- E1/2 of the 3^0/− couple [1]: −1.02 V vs SCE
- E1/2 of the 3^2+/+ couple [1]: +0.00 V vs SCE
- E1/2 of the 3^6+/2+ four-electron couple [1]: +0.60 V vs SCE
- E1/2 of the 3^+/0 couple [1]: −0.33 V vs SCE
- E1/2 of the 3^−/2− couple [1]: −1.39 V vs SCE
- range over which the redox couples are observed (estimation of the Vcell): 1.9 V
